Key:
hairless mice = experiment: Erythematous response after topical application of nicotinic acid esters to hairless mice; assay type: in vivo; conditions: for Erythematous Response: topical, 0.5 to 2.0% (wt/wt) in 200 mg lotion daily for one week, hairless mice; for cutaneous vasodilation: topical niacin esters
Description: Female hairless mice (HRS-J. 6-8 weeks old were used.) These were housed in solid bottom cages provided with sterile feed and water […], with a 14:10 light-dark cycle. The nicotinic acid esters of Example 1 were applied with a gloved finger daily to the backs of hairless mice in 200 mg of Vanicream Lite™ skin care lotion (Pharmaceutical Specialties, Inc., containing purified water, white petrolatum, ceteareth alcohol and ceteareth-20, propylene glycol, sorbitol solution, simethicone, glyceryl monostearate, polyethylene glycol monostearate, sorbic acid and BHT) at concentrations in the range of 0.5 to 2.0% (wt/wt) for one week. Control mice received 200 mg of the lotion alone. […] Dorsal and ventral skin samples were immediately frozen in liquid nitrogen and stored at −80° C.

[1] = tested on: apoB100/CETP double transgenic mice; experiment: Plasma lipid profiles of apoB100/CETP double transgenic mice, transdermal lauryl niacin ester vs oral niacin, 90 days; assay type: in vivo
Description: Niacin intake was estimated from the water consumed.
For topical administration, niacin lauryl esters was applied daily to the shaved backs of mice in 200 mg of lotion at concentrations of 1, 2, 5 and 10% (wt/wt) for 13 weeks. Per 25-g mouse, the daily topical doses would be in the range of 34 to 340 mg/kg as niacin. Control mice received equal amounts of the vehicle lotion alone. A lipid analysis was performed as described in Example 4.
Improvement of lipid profiles of apoB100/CETP transgenic mice treated with niacin prodrug. The effect of transdermal delivery of lauryl niacin ester on plasma lipid profiles in a comparison with oral niacin in the apoB100/CETP double transgenic mice for 90 days. A total of six groups of six animals were used in this study. For topical administration, lauryl niacin ester was applied daily to the shaved backs of mice. For oral administration, niacin (sodium salt) was dissolved in the drinking water.

mice = conditions: oral niacin; study not named at the place
Description: Additionally, a plasma lipid analysis was performed by taking fasting (16 h) blood samples of the hairless mice were obtained at the beginning, at 30 days and 60 days from the retroorbital plexus, and at the end of treatment by cardiac puncture. The animals were euthanized by cardiac injection of pentobarbital prior to blood collection. Blood was collected into microfuge tubes containing 10 μl of heparin, plasma separated by centrifugation at 2,000×g for 15 minutes and stored at -80° C. until analysis within 1 week. Total cholesterol, HDL-C and triglycerides were measured enzymatically, using a clinical chemistry analyzer Syncrhon CX7 by Beckman). Female apoB/CETP double transgenic mice (Taconic Biotechnology, Germantown, N.Y.) were divided into 6 groups and housed in groups of 6 animals per. […] For oral administration, niacin (sodium salt) was dissolved in drinking water at a concentration of 0.75% (0.63% as free acid). Niacin intake was estimated from the water consumed. The estimated daily niacin intake was approximately 1,400 mg/kg. The oral dose used was 760 mg/kg/day and the topical dose was 250 mg/kg/day as niacin.

[2] = topical, daily to shaved backs, one-fourth the dose of the oral treatment
[3] = oral, sodium salt in drinking water

| Erythematous Response (hairless mice) | SMILES | further results |
| --- | --- | --- |
| No | CCCCCCCCCCCCOC(=O)c1cccnc1 [12 carbons, lauryl nicotinate] | cutaneous vasodilation (hairless mice): no cutaneous vasodilation; HDL-C elevated by [1, 2]: 8%; LDL-C fraction lowered by [1, 2]: 38%; total cholesterol lowered by [1, 2]: 15%; triglycerides lowered by [1, 2]: 33% |
| Yes | CCCCCCOC(=O)c1cccnc1 [6 carbons] |  |
| No | CCCCCCCCCCCCCCCOC(=O)c1cccnc1 [15 carbons] |  |
| No | CCCCCCCCCCCCCCOC(=O)c1cccnc1 [14 carbons, myristyl nicotinate] | cutaneous vasodilation (hairless mice): no cutaneous vasodilation |
| No | CCCCCCCCCCCCCOC(=O)c1cccnc1 [13 carbons] |  |
| Yes | CCCCCCCCOC(=O)c1cccnc1 [8 carbons] |  |
| No | CCCCCCCCCCCCCCCCOC(=O)c1cccnc1 [16 carbons] |  |
| Slight | CCCCCCCCCCOC(=O)c1cccnc1 [10 carbons] | Erythematous Response (hairless mice; listed as C10 ester): reduced erythematous response |

More lines, now with the values behind:

| SMILES | Erythematous Response (hairless mice) | further results |
| --- | --- | --- |
| CCOC(=O)c1cccnc1 [2 carbons] | Yes |  |
| CCCCOC(=O)c1cccnc1 [4 carbons] | Yes |  |
| O=C(O)c1cccnc1 [niacin, nicotinic acid] |  | total cholesterol lowered by (mice): 12%; HDL-C fraction lowered by [1, 3]: 13%; LDL fraction lowered by [1, 3]: 45%; total cholesterol lowered by [1, 3]: 29%; triglycerides lowered by [1, 3]: 37% |
| COC(=O)c1cccnc1 [1 carbon] | Yes |  |
| CCCCCCCCCCCCCCCCCCOC(=O)c1cccnc1 [18 carbons] | No |  |

— patent publication US6677361B2, “Topical formulations for the transdermal delivery of niacin and methods of treating hyperlipidemia” (University of Kentucky Research Foundation, priority 2000, dated 2004)
